Assay results taken from patent US8481521B2, “Methods of treating cell proliferative disorders” (Rigel Pharmaceuticals, Inc., priority 2005, dated 2013).
≈ marks a conversion by molar mass, not a printed value. Like-named read-outs stand apart in the source and are kept apart here.

Columns and labels:
[1] = tested on: MV4-11 human acute myeloid leukemia cells; experiment: Subcutaneous MV4-11 tumor growth (initial studies); type: in vivo, mice
Text: The Flt-3 ITD mutation has been associated with poor prognosis and reduced remission rates in affected AML patients, making it an attractive target for therapeutic intervention. Studies have shown that mutant Flt-3 ITD receptors dimerize in a Flt-3 ligand-independent manner and auto-phosphorylation of the receptor results in constitutive activation, increased proliferation, and growth factor independence of the mutant cell.

[2] = Pharmacokinetics in NOD-SCID mice after PO VII calcium salt (plasma VI); type: in vivo; parameters: T-max (Compound VI in plasma): unit not given here
Method: Initial PK data in NOD-SCID mice was generated in an intial study prior to dosing in this study.
Due to precipitates observed in on-study formulations prepared in the initial study and other studies, additional PK data was obtained using remaining dosing solutions after study termination. NOD-SCID female mice (n=4) were dosed with 40 mg/kg dose solution of VII and plasma obtained at 1 hour post dose.
Table 5A and 5B: PO administration of VII Calcium Salt: Mean Concentration of Compound VI in Plasma (ng/mL).

[3] = in vivo
Method: (§1) GLP toxicology studies included negative mutagenicity and clastogenicity studies (Ames, chromosomal aberration, and mouse micronucleus). […] The No Observed Adverse Effect Level (NOAEL) is 10-30 mg/kg/day for rats and 100 mg/kg/day for monkeys.

[4] = tested on: 32D transfected with ITD or point mutated Flt-3; experiment: Apoptosis of 32D transfectants (Annexin V and PI staining); type: cell-based; details: 1 uM, 24 h
Method: (§2) AML cells or 32D transfectants were treated for 48 h (AML) or 24 h (32D) with 1 uM VI, and the increase in % of apoptotic cells was determined using Annexin V and PI staining.

[5] = tested on: TEL-Syk-transformed cells; experiment: Proliferation (DNA content) and differentiation of TEL-Syk-transformed pre-B cells; type: cell-based
Method: Cells were cultured for 3 days in the absence of IL-7 and analyzed for the expression of kappa LC by FACS. Experiments showing the inhibition of proliferation of Syk-transformed cells by a Syk inhibitory compound are described in […]., Abe, A., and Jumaa, H., “The protein tyrosine kinase Syk is involved in malignant transformation and leukemia development,” (manuscript in preparation). The experiments described in the manuscript are briefly summarized below. Aberrant Syk variants resulting from chromosomal translocation Tel-Syk were tested for its ability to transform pre-B cells by retrovirally transducing freshly isolated bone marrow pre-B cells with IRES-GFP vectors expressing Tel-Syk. […] Transformation of the pre B cells by Tel-Syk activity was confirmed by injecting the TEL-SYK transduced cells into RAG/γC-/- mice, which led to animals presenting symptoms of myelodysplastic disease. […] To test whether inhibition of Syk activity in the cells transformed with Tel-Syk block cell proliferation, the effect of Syk kinase inhibitor 2,4-pyrimidinediamine compound IV was tested in vitro by examining the DNA content of treated cells.

[6] = Solubility of drug and phosphate prodrug; type: physicochemical
Text: In contrast, Compound 4 is highly polar at neutral pH. Measured solubility values are consistent with the predicted cLogD values at pH=7.5.

[7] = tested on: tumorigenic SLP-65−/− pre-B cell lines; experiment: Proliferation (DNA content) of tumorigenic SLP-65-/- pre-B cell lines; type: cell-based; details: 36 hours, 2 μM
[8] = tested on: AML cells harboring Flt-3 ITD; experiment: Apoptosis of AML cells (Annexin V and PI staining); type: cell-based; details: 1 uM, 48 h
Method: as §2

[9] = GLP mutagenicity and clastogenicity studies (Ames, chromosomal aberration, mouse micronucleus)
Method: as §1

[10] = tested on: Myc-transformed pre-B cells; experiment: Proliferation (DNA content) of Myc-transformed pre-B cells; type: cell-based; details: 36 hours, 2 μM
Text: FIG. 2A is a FACS profile of pre-B cells that were transduced with Myc expression vectors and cultured in the absence of IL-7 for 1 week.
To determine the effect of Syk inhibitor on proliferation of leukemic cells, several tumorigenic pre-B cell lines that induce leukemia after injection into mice were used. Because tumorigenic cells need the pre-B cell receptor (pre-BCR) for proliferation, and Syk is a critical protein for pre-BCR signaling cascade, it is expected that Syk inhibitors will inhibit proliferation of these tumorigenic pre-B cells. […] Cells were injected into […] mice to examine their ability to proliferate in vivo.

N4-(2,2-dimethyl-4-[(dihydrogen phosphonoxy)methyl]-3-oxo-5-pyrido[1,4]oxazin-6-yl)-5-fluoro-N2-(3,4,5-trimethoxyphenyl)-2,4-pyrimidinediamine mono calcium salt [Compound 6]
subcutaneous tumor growth [1]: reduced subcutaneous tumor growth
AUCinf (Compound VI in plasma) ([2]; PO 20 mg/kg, Female): 5362 ng·h/mL
AUClast (Compound VI in plasma) ([2]; PO 20 mg/kg, Female): 5351 ng·h/mL
C-max (Compound VI in plasma) ([2]; PO 20 mg/kg, Female): 3717 ng/mL
T1/2 (Compound VI in plasma) ([2]; PO 20 mg/kg, Female): 35.4 min
T-max (Compound VI in plasma) ([2]; PO 20 mg/kg, Female): 0.25
Mean Concentration of Compound VI in Plasma ([2]; PO 20 mg/kg, Female, 0.25 hrs): 3717 ng/mL
Mean Concentration of Compound VI in Plasma ([2]; PO 20 mg/kg, Female, 0.5 hrs): 2240 ng/mL
Mean Concentration of Compound VI in Plasma ([2]; PO 20 mg/kg, Female, 1 hrs): 1737 ng/mL
Mean Concentration of Compound VI in Plasma ([2]; PO 20 mg/kg, Female, 2 hrs): 1438 ng/mL
Mean Concentration of Compound VI in Plasma ([2]; PO 20 mg/kg, Female, 4 hrs): 55.0 ng/mL
Mean Concentration of Compound VI in Plasma ([2]; PO 20 mg/kg, Female, 6 hrs): 13.0 ng/mL
AUCinf (Compound VI in plasma) ([2]; PO 20 mg/kg, Male): 11434 ng·h/mL
AUClast (Compound VI in plasma) ([2]; PO 20 mg/kg, Male): 10261 ng·h/mL
C-max (Compound VI in plasma) ([2]; PO 20 mg/kg, Male): 3377 ng/mL
T1/2 (Compound VI in plasma) ([2]; PO 20 mg/kg, Male): 107 min
T-max (Compound VI in plasma) ([2]; PO 20 mg/kg, Male): 0.50
Mean Concentration of Compound VI in Plasma ([2]; PO 20 mg/kg, Male, 0.25 hrs): 1872 ng/mL
Mean Concentration of Compound VI in Plasma ([2]; PO 20 mg/kg, Male, 0.5 hrs): 3377 ng/mL
Mean Concentration of Compound VI in Plasma ([2]; PO 20 mg/kg, Male, 1 hrs): 3280 ng/mL
Mean Concentration of Compound VI in Plasma ([2]; PO 20 mg/kg, Male, 2 hrs): 2130 ng/mL
Mean Concentration of Compound VI in Plasma ([2]; PO 20 mg/kg, Male, 4 hrs): 1209 ng/mL
Mean Concentration of Compound VI in Plasma ([2]; PO 20 mg/kg, Male, 6 hrs): 454 ng/mL
AUCinf (Compound VI in plasma) ([2]; PO 40 mg/kg, Female): 11625 ng·h/mL
AUClast (Compound VI in plasma) ([2]; PO 40 mg/kg, Female): 11498 ng·h/mL
C-max (Compound VI in plasma) ([2]; PO 40 mg/kg, Female): 5497 ng/mL
T1/2 (Compound VI in plasma) ([2]; PO 40 mg/kg, Female): 50.4 min
T-max (Compound VI in plasma) ([2]; PO 40 mg/kg, Female): 1.00
Mean Concentration of Compound VI in Plasma ([2]; PO 40 mg/kg, Female, 0.25 hrs): 5140 ng/mL
Mean Concentration of Compound VI in Plasma ([2]; PO 40 mg/kg, Female, 0.5 hrs): 3597 ng/mL
Mean Concentration of Compound VI in Plasma ([2]; PO 40 mg/kg, Female, 1 hrs): 5497 ng/mL
Mean Concentration of Compound VI in Plasma ([2]; PO 40 mg/kg, Female, 2 hrs): 2823 ng/mL
Mean Concentration of Compound VI in Plasma ([2]; PO 40 mg/kg, Female, 4 hrs): 201 ng/mL
Mean Concentration of Compound VI in Plasma ([2]; PO 40 mg/kg, Female, 6 hrs): 105 ng/mL
AUCinf (Compound VI in plasma) ([2]; PO 40 mg/kg, Male): 27170 ng·h/mL
AUClast (Compound VI in plasma) ([2]; PO 40 mg/kg, Male): 20831 ng·h/mL
C-max (Compound VI in plasma) ([2]; PO 40 mg/kg, Male): 6370 ng/mL
T1/2 (Compound VI in plasma) ([2]; PO 40 mg/kg, Male): 138 min
T-max (Compound VI in plasma) ([2]; PO 40 mg/kg, Male): 2.00
Mean Concentration of Compound VI in Plasma ([2]; PO 40 mg/kg, Male, 0.25 hrs): 3587 ng/mL
Mean Concentration of Compound VI in Plasma ([2]; PO 40 mg/kg, Male, 0.5 hrs): 2860 ng/mL
Mean Concentration of Compound VI in Plasma ([2]; PO 40 mg/kg, Male, 1 hrs): 5250 ng/mL
Mean Concentration of Compound VI in Plasma ([2]; PO 40 mg/kg, Male, 2 hrs): 6370 ng/mL
Mean Concentration of Compound VI in Plasma ([2]; PO 40 mg/kg, Male, 4 hrs): 1730 ng/mL
Mean Concentration of Compound VI in Plasma ([2]; PO 40 mg/kg, Male, 6 hrs): 1909 ng/mL
AUCinf (Compound VI in plasma) ([2]; PO 80 mg/kg, Female): 27662 ng·h/mL
AUClast (Compound VI in plasma) ([2]; PO 80 mg/kg, Female): 27013 ng·h/mL
C-max (Compound VI in plasma) ([2]; PO 80 mg/kg, Female): 8193 ng/mL
T1/2 (Compound VI in plasma) ([2]; PO 80 mg/kg, Female): 58.2 min
T-max (Compound VI in plasma) ([2]; PO 80 mg/kg, Female): 2.00
Mean Concentration of Compound VI in Plasma ([2]; PO 80 mg/kg, Female, 0.25 hrs): 3847 ng/mL
Mean Concentration of Compound VI in Plasma ([2]; PO 80 mg/kg, Female, 0.5 hrs): 7433 ng/mL
Mean Concentration of Compound VI in Plasma ([2]; PO 80 mg/kg, Female, 1 hrs): 7267 ng/mL
Mean Concentration of Compound VI in Plasma ([2]; PO 80 mg/kg, Female, 2 hrs): 8193 ng/mL
Mean Concentration of Compound VI in Plasma ([2]; PO 80 mg/kg, Female, 4 hrs): 2529 ng/mL
Mean Concentration of Compound VI in Plasma ([2]; PO 80 mg/kg, Female, 6 hrs): 465 ng/mL

COc1cc(Nc2ncc(F)c(Nc3ccc4c(n3)NC(=O)C(C)(C)O4)n2)cc(OC)c1OC [Compound III, N4-(2,2-dimethyl-3-oxo-4H-5-pyrido[1,4]oxazin-6-yl)-5-fluoro-N2-(3,4,5-trimethoxyphenyl)-2,4-pyrimidinediamine]
28-day toxicity: hematology, bone marrow cellularity ([3]; monkey): reversible effect
28-day toxicity: hematology, liver transaminase, spleen and thymus size, bone marrow cellularity ([3]; rat): reversible effect
apoptosis of 32D transfected with ITD or point mutated Flt-3 vs wt Flt-3 [4]: undergo more apoptosis
differentiation of TEL-Syk-transformed pre-B cells (kappa light chain expression) [5]: induce differentiation
proliferation of TEL-Syk-transformed pre-B cells ([5]; DNA content, 36 hours, 2 μM): block proliferation
solubility ([6]; aqueous buffer, phosphate buffer at pH=7.5, read-out: measured solubility): < 1 µg/mL
solubility ([6]; water solubility, read-out: Solubility): 1 to 2 µg/mL (≈ 2.13 to 4.25 µM)
proliferation of tumorigenic SLP-65−/− pre-B cell lines [7]: block the proliferation
induced apoptosis of AML cells harboring Flt-3 ITD [8]: uniquely sensitive
mutagenicity and clastogenicity (Ames, chromosomal aberration, mouse micronucleus) [9]: negative
proliferation of Myc-transformed pre-B cells [10]: block the proliferation
plasma levels of VI by 6 hours post-dose ([2]; female mice, 20, 40 or 80 mg/kg doses of VII): virtually undetectable
